≈ marks a conversion by molar mass, not a printed value.
Assays:
Saccharomyces cerevisiae = experiment: Antifungal activity against Saccharomyces cerevisiae; assay type: functional
Cryptococcus neoformans = experiment: Antifungal activity against Cryptococcus neoformans; assay type: functional
Fusarium graminearum = experiment: Antifungal activity against Fusarium graminearum; assay type: functional
Aspergillus niger [1] = experiment: Antifungal activity against Aspergillus niger assessed as zone of inhibition by serial dilution and disc diffusion method; assay type: functional
Aspergillus flavus [2] = experiment: Antifungal activity against Aspergillus flavus assessed as zone of inhibition by serial dilution and disc diffusion method; assay type: functional
Candida albicans [3] = experiment: Antifungal activity against Candida albicans assessed as zone of inhibition by serial dilution and disc diffusion method; assay type: functional
Rhizopus [4] = experiment: Antifungal activity against Rhizopus assessed as zone of inhibition by serial dilution and disc diffusion method; assay type: functional
Aspergillus niger [5] = experiment: Potency index, ratio of Amphotericin B IZ to test compound IZ for Aspergillus niger assessed as zone of inhibition by serial dilution and disc diffusion method; assay type: functional
Aspergillus flavus [6] = experiment: Potency index, ratio of Amphotericin B IZ to test compound IZ for Aspergillus flavus assessed as zone of inhibition by serial dilution and disc diffusion method; assay type: functional
Candida albicans [7] = experiment: Potency index, ratio of Amphotericin B IZ to test compound IZ for Candida albicans assessed as zone of inhibition by serial dilution and disc diffusion method; assay type: functional
Rhizopus [8] = experiment: Potency index, ratio of Amphotericin B IZ to test compound IZ for Rhizopus assessed as zone of inhibition by serial dilution and disc diffusion method; assay type: functional
Candida albicans [9] = experiment: Antifungal activity against Candida albicans assessed as zone of inhibition at 25 to 100 ug/ml; assay type: functional
Cryptococcus gattii = experiment: Antifungal activity against Cryptococcus gattii; assay type: functional, Cryptococcus gattii VGI

Structure (SMILES) | inhibition zone (IZ) (Aspergillus niger [1]) | inhibition zone (IZ) (Aspergillus flavus [2]) | inhibition zone (IZ) (Candida albicans [3]) | inhibition zone (IZ) (Rhizopus [4]) | Ratio (Aspergillus niger [5]) | Ratio (Aspergillus flavus [6]) | Ratio (Candida albicans [7]) | Ratio (Rhizopus [8]) | also measured
CCCCCCCCO[C@H]1[C@H](N)[C@@H](O)[C@@H](O[C@@H]2[C@@H](O)[C@H](O[C@H]3O[C@H](CN)[C@@H](O)[C@H](O)[C@H]3N)[C@@H](N)C[C@H]2N)O[C@@H]1C |  |  |  |  |  |  |  |  | MIC (Saccharomyces cerevisiae): 4 to 31.3 µg/mL (≈ 6.9 to 54 µM); MIC (Cryptococcus neoformans): 3.9 to 7.8 µg/mL (≈ 6.73 to 13.5 µM); MIC (Fusarium graminearum): 7.8 µg/mL (≈ 13.5 µM)
Cc1nc(-c2ccc(F)c(Br)c2)n(CCN2CCNCC2)c1C | 18 - 21 mm | 18 - 21 mm | 18 - 21 mm | 18 - 21 mm | 1.5 - 2 | 1.5 - 2 | 1.5 - 2 | 1.5 - 2 | 
Cc1nc(-c2ccc(Cl)cc2)n(CCN2CCNCC2)c1C | 16 - 20 mm | 16 - 20 mm | 16 - 20 mm | 16 - 20 mm | 1.5 - 2 | 1.5 - 2 | 1.5 - 2 | 1.5 - 2 | 
Cc1nc(-c2cccs2)n(CCN2CCNCC2)c1C | 16 - 200 mm | 16 - 200 mm | 16 - 200 mm | 16 - 200 mm |  |  |  |  | 
Cc1nc(-c2ccc(F)cc2)n(CCN2CCNCC2)c1C | 16 - 22 mm | 16 - 22 mm | 16 - 22 mm | 16 - 22 mm | 1.5 - 2 | 1.5 - 2 | 1.5 - 2 | 1.5 - 2 | 
C[C@@H]1[C@H](O)[C@@H](C)/C=C/C=C/C=C/C=C/C=C/C=C/C=C/[C@H](O[C@@H]2O[C@H](C)[C@@H](O)[C@H](N)[C@@H]2O)C[C@@H]2O[C@](O)(C[C@@H](O)C[C@@H](O)[C@H](O)CC[C@@H](O)C[C@@H](O)CC(=O)O[C@H]1C)C[C@H](O)[C@H]2C(=O)O [AMPHOTERICIN B] | 11 - 14 mm | 11 - 14 mm | 11 - 14 mm | 11 - 14 mm |  |  |  |  | 
OC(Cn1cncn1)(Cn1cncn1)c1ccc(F)cc1F [FLUCONAZOLE] |  |  |  |  |  |  |  |  | inhibition zone (IZ) (Candida albicans [9]): 2.6 - 2.8 cm
C/C(=C(/OCCOc1ccc(Cl)cc1)c1ccc(Cl)cc1Cl)n1ccnc1 [OMOCONAZOLE] |  |  |  |  |  |  |  |  | MIC (Cryptococcus gattii): ≤ 4 µg/mL
Clc1ccc(CO/N=C(\Cn2ccnc2)c2ccc(Cl)cc2Cl)c(Cl)c1 [OXICONAZOLE] |  |  |  |  |  |  |  |  | MIC (Cryptococcus gattii): ≤ 4 µg/mL

— ChEMBL document CHEMBL4627315, “Promising antifungal agents: A minireview” (2020)
